{
  "source": "patent US11696905B2",
  "about": "“Ready-to-use tranexamic acid intravenous solution” (Boulevard Patience et Beaujonc Nº3/1, priority 2018, dated 2023)",
  "origin": "cited, not measured here",
  "key": {"[1]": {"settings": "oral administration"}, "[2]": {"settings": "four doses of 10-20 mg per kg body weight 36-48 hours before surgery"}},
  "data": [
    {"compound": "NC[C@H]1CC[C@H](C(=O)O)CC1", "note": "[Tranexamic acid, trans-4-(aminomethyl)cyclohexanecarboxylic acid]", "values": [
      {"measurement": "absorption from the human gastrointestinal tract", "setting": "[1]", "result": 40, "unit": "%"},
      {"measurement": "time antifibrinolytically active concentration remained in the serum", "setting": "[2]", "result": "7 to 8", "unit": "h"},
      {"measurement": "time antifibrinolytically active concentration remained in the tissues investigated", "setting": "[2]", "result": "up to 17 hours"},
      {"measurement": "antifibrinolytically active concentration", "setting": "in vivo", "result": 10, "unit": "µg/mL"}
    ]}
  ]
}
